Source: patent US4241069A, “3-Methylene flavanones and 3-methylene chromanones” (Miles Laboratories, Inc., priority 1979, dated 1980)
In brackets after ≈: the same amount, converted by molar mass.

Key:
A. fumigatus NRRL 163 = experiment: MIC, agar incorporation method; type: cell-based; conditions: 32° C., 48-72 hours; for MIC: Aspergillus fumigatus, NRRL163, NRRL 163, read-out: Minimal Inhibitory Concentration
Experimental: (§1) The compounds of the present invention were tested for their ability to inhibit the growth of microorganisms by in vitro tests. Generally the in vitro tests involve growing representative microorganisms under conditions favorable to such growth and measuring the effectiveness of one or more compounds in inhibiting or destroying the growth of the microorganisms. The microorganisms used include representative bacteria, fungi and yeasts.
(§2) A representative selection of the test microorganisms were cultured in a nutrient broth, such as, for example, Eugon, commercially available from Difco Laboratories, Detroit, Michigan. Bacteria and Candida species were cultured for 24 hours at 32°-37° C. and fungi were cultured for approximately one week at 32° C. Inocula were prepared by suspending the growth or spores from a slant culture in sufficient sterile normal (0.9 percent) saline or Eugon broth, to yield cell or spore concentrations of 1,000,000 cells per milliliter. Anaerobic bacteria were cultured for 48-72 hours at 32°-37° C. in a thioglycollate containing medium, for example, Fluid Thioglycollate medium or NIH thioglycollate broth, commercially available from Difco Laboratories.
(§3) The compounds of the present invention were tested for activity against bacteria, yeasts and fungi by the agar incorporation method described below. MA 1347, 3-(dimethylaminomethyl)flavanone (disclosed in U.S. Pat. No. 3,753,985) was used as a comparative standard along with controls for each solvent system used.
(§4) A series of agar plates containing two-fold dilutions of each compound to be tested, ranging in concentration from 100 to 3.1 mcg/ml of agar medium was prepared. Aliquots of each concentration (100, 50, 25, 12.5, 6.2, and 3.1) prepared in N,N-dimethylformamide or 50 percent aqueous DMF were added to liquid Eugon agar at 48° C. (one part test solution to 100 parts agar). In some cases, tests with further dilutions to 0.125 mcg/ml were conducted. The agar medium, containing the 3-methylene flavanone or chromanone compound to be tested, was then dispensed into petri dishes and allowed to solidify. The solidified plates were kept overnight at room temperatures to dry the surface of the agar.
(§5) The agar plates were then inoculated with a drop of the standardized cell or spore suspension. Inoculated plates were incubated at 32° C. The inhibition end-point or minimum inhibitory concentration (MIC) shown in Table D represent the lowest concentration of test compound which inhibited the growth of the microorganism. Visual determination of growth inhibition was used. Bacteria and yeast end-points were determined after 24 hours incubation; molds, dermatophytes and anaerobes after 48-72 hours incubation. MIC values shown as ranges represent the extremes found in repeat assays. Virtually all such values were written plus or minus one dilution, the accepted variation of a two-fold dilution assay.

A. fumigatus NRRL 165 = experiment: MIC, agar incorporation method; type: cell-based; conditions: Aspergillus fumigatus, NRRL165, 32° C., 48-72 hours, read-out: Minimal Inhibitory Concentration
Experimental: as §1, §2, §3, §4, §5

[1] = system: Aspergillus niger ATCC 16404; experiment: MIC, agar incorporation method; type: cell-based; conditions: ATCC16404, 32° C., 48-72 hours, read-out: Minimal Inhibitory Concentration
Experimental: as §1, §2, §3, §4, §5

C. albicans NRRL Y-477 = experiment: MIC, agar incorporation method; type: cell-based; conditions: Candida albicans, NRRLY477, 32° C., 24 hours, read-out: Minimal Inhibitory Concentration
Experimental: as §1, §2, §3, §4, §5

C. guillermondii VM 42 = experiment: MIC, agar incorporation method; type: cell-based; conditions: 32° C., 24 hours; read-out: Minimal Inhibitory Concentration
Experimental: as §1, §2, §3, §4, §5

C. krusei VM 29B = experiment: MIC, agar incorporation method; type: cell-based; conditions: Pichia kudriavzevii, VM29B; 32° C., 24 hours; read-out: Minimal Inhibitory Concentration
Experimental: as §1, §2, §3, §4, §5

C. tropicalis NRRL Y1410 = experiment: MIC, agar incorporation method; type: cell-based; conditions: Candida tropicalis, NRRLY1410; 32° C., 24 hours; read-out: Minimal Inhibitory Concentration
Experimental: as §1, §2, §3, §4, §5

[2] = system: Candida albicans ATCC 10231; experiment: MIC, agar incorporation method; type: cell-based; conditions: ATCC10231, C. albicans ATCC 10231, 32° C., 24 hours, read-out: Minimal Inhibitory Concentration
Experimental: as §1, §2, §3, §4, §5

[3] = system: Escherichia coli ATCC 8739; experiment: MIC, agar incorporation method; type: cell-based; conditions: ATCC8739, 32° C., 24 hours, read-out: Minimal Inhibitory Concentration
Experimental: as §1, §2, §3, §4, §5

[4] = system: Proteus vulgaris NRRL B123; experiment: MIC, agar incorporation method; type: cell-based; conditions: NRRLB123, 32° C., 24 hours, read-out: Minimal Inhibitory Concentration
Experimental: as §1, §2, §3, §4, §5

[5] = system: Pseudomonas aeruginosa ATCC 14502; experiment: MIC, agar incorporation method; type: cell-based; conditions: ATCC14502, 32° C., 24 hours, read-out: Minimal Inhibitory Concentration
Experimental: as §1, §2, §3, §4, §5

[6] = system: Sarcina subflava ATCC 7468; experiment: MIC, agar incorporation method; type: cell-based; conditions: ATCC7468, 32° C., 24 hours, read-out: Minimal Inhibitory Concentration
Experimental: as §1, §2, §3, §4, §5

[7] = system: Staphylococcus aureus ATCC 6538; experiment: MIC, agar incorporation method; type: cell-based; conditions: S. aureus ATCC 6538, 32° C., 24 hours; for MIC: Staphylococcus aureus, ATCC6538, read-out: Minimal Inhibitory Concentration
Experimental: as §1, §2, §3, §4, §5

[8] = system: Streptococcus faecalis ATCC 10541; experiment: MIC, agar incorporation method; type: cell-based; conditions: Enterococcus faecalis, ATCC10541; 32° C., 24 hours; read-out: Minimal Inhibitory Concentration
Experimental: as §1, §2, §3, §4, §5

T. mentagrophytes CDC = experiment: MIC, agar incorporation method; type: cell-based; conditions: Trichophyton mentagrophytes, 32° C., 48-72 hours, read-out: Minimal Inhibitory Concentration
Experimental: as §1, §2, §3, §4, §5

T. mentagrophytes TM-2 = experiment: MIC, agar incorporation method; type: cell-based; conditions: Trichophyton mentagrophytes, TM2, 32° C., 48-72 hours, read-out: Minimal Inhibitory Concentration
Experimental: as §1, §2, §3, §4, §5

T. rubrum ATCC 10218 = experiment: MIC, agar incorporation method; type: cell-based; conditions: Trichophyton rubrum, ATCC10218; 32° C., 48-72 hours; read-out: Minimal Inhibitory Concentration
Experimental: as §1, §2, §3, §4, §5

T. tonsurans ATCC 10217 = experiment: MIC, agar incorporation method; type: cell-based; conditions: Trichophyton tonsurans, ATCC10217; 32° C., 48-72 hours; read-out: Minimal Inhibitory Concentration
Experimental: as §1, §2, §3, §4, §5

[9] = system: Trichophyton mentagrophytes ATCC 4807; experiment: MIC, agar incorporation method; type: cell-based; conditions: ATCC4807, 32° C., 48-72 hours, read-out: Minimal Inhibitory Concentration
Experimental: as §1, §2, §3, §4, §5

S. aureus NRRL B2747 [10] = experiment: MIC, agar incorporation method; type: cell-based, Staphylococcus aureus; conditions: 24 hours; for MIC: Staphylococcus aureus, NRRLB2747, 32° C., read-out: Minimal Inhibitory Concentration
Experimental: as §1, §2, §3, §4, §5

[11] = system: Bacteriodides fragilis ATCC 8482; experiment: MIC, agar incorporation method, anaerobic; type: cell-based; conditions: 48 hours at 35° C., GasPak Anaerobic Jar, read-out: Minimal Inhibitory Concentration
Experimental: as §1, §2, §3, §4, §5
(§6) *Anaerobic: 48 hours incubation at 35° C. GasPak Anaerobic Jar

[12] = system: Clostridium acetobutylicum ATCC 824; experiment: MIC, agar incorporation method, anaerobic; type: cell-based; conditions: ATCC824, 48 h, 48 hours at 35° C., GasPak Anaerobic Jar, read-out: Minimal Inhibitory Concentration
Experimental: as §1, §2, §3, §4, §5, §6

[13] = system: Clostridium sporogenes ATCC 11437; experiment: MIC, agar incorporation method, anaerobic; type: cell-based; conditions: ATCC11437, 48 hours at 35° C., GasPak Anaerobic Jar, read-out: Minimal Inhibitory Concentration
Experimental: as §1, §2, §3, §4, §5, §6

[14] = system: Propionobacterium acnes ATCC 6919; experiment: MIC, agar incorporation method, anaerobic; type: cell-based; conditions: 48 hours at 35° C., GasPak Anaerobic Jar, read-out: Minimal Inhibitory Concentration
Experimental: as §1, §2, §3, §4, §5, §6

S. aureus NRRL B2747 [15] = experiment: MIC, agar incorporation method, anaerobic; type: cell-based; conditions: Staphylococcus aureus, NRRLB2747, 48 hours at 35° C., GasPak Anaerobic Jar, read-out: Minimal Inhibitory Concentration
Experimental: as §1, §2, §3, §4, §5, §6

[16] = system: Microsporum gypseum ATCC 14683; experiment: MIC, agar incorporation method; type: cell-based; conditions: 48-72 hours; for MIC: Nannizzia gypsea, ATCC14683, 32° C., read-out: Minimal Inhibitory Concentration
Experimental: as §1, §2, §3, §4, §5

SMILES | MIC (A. fumigatus NRRL 163) | MIC [1] | MIC (C. albicans NRRL Y-477) | MIC (C. guillermondii VM 42) | MIC (C. krusei VM 29B) | MIC (C. tropicalis NRRL Y1410) | MIC [2] | MIC [3] | MIC [4] | MIC [5] | MIC [6] | MIC [7] | MIC [8] | MIC (T. mentagrophytes CDC) | MIC (T. mentagrophytes TM-2) | MIC (T. rubrum ATCC 10218) | MIC [9] | MIC (S. aureus NRRL B2747 [10]) | MIC [12] | MIC [14] | also measured
C=C1C(=O)c2ccccc2OC1(c1ccccc1)c1ccccc1 [Ex. 20, 3-methylene-2-phenyl flavanone] | > 100 µg/mL | > 100 µg/mL | > 100 µg/mL | > 100 µg/mL | > 100 µg/mL | > 100 µg/mL | > 100 µg/mL | > 100 µg/mL | > 100 µg/mL | > 100 µg/mL | 1 µg/mL (≈ 3.2 µM) | 0.5 µg/mL (≈ 1.6 µM) | 0.78 to 1 µg/mL (≈ 2.5 to 3.2 µM) | > 100 µg/mL | > 100 µg/mL | > 100 µg/mL | > 100 µg/mL | 0.25 to 0.5 µg/mL (≈ 0.8 to 1.6 µM) | 1 µg/mL (≈ 3.2 µM) | 0.78 to 3.1 µg/mL (≈ 2.5 to 9.92 µM) | MIC (A. fumigatus NRRL 165): > 100 µg/mL; MIC (T. tonsurans ATCC 10217): > 100 µg/mL; MIC [11]: 0.125 µg/mL (≈ 0.4 µM); MIC [13]: 0.5 µg/mL (≈ 1.6 µM); MIC (S. aureus NRRL B2747 [15]): 0.25 to 1 µg/mL (≈ 0.8 to 3.2 µM)
CN(C)CC1C(=O)c2ccccc2OC1c1ccccc1 (stereo not shown) [MA 1347, 3-(dimethylaminomethyl)flavanone, reference compound] | 6.2 to 25 µg/mL (≈ 22 to 88.9 µM) | 50 µg/mL (≈ 178 µM) | 25 µg/mL (≈ 88.9 µM) | 50 to 100 µg/mL (≈ 178 to 355 µM) | 12.5 to 25 µg/mL (≈ 44.4 to 88.9 µM) | 50 to 100 µg/mL (≈ 178 to 355 µM) | 25 to 50 µg/mL (≈ 88.9 to 178 µM) | > 100 µg/mL | > 100 µg/mL | > 100 µg/mL | 12.5 µg/mL (≈ 44.4 µM) | 6.2 to 12.5 µg/mL (≈ 22 to 44.4 µM) | 50 µg/mL (≈ 178 µM) | 6.2 to 12.5 µg/mL (≈ 22 to 44.4 µM) | 6.2 to 12.5 µg/mL (≈ 22 to 44.4 µM) | 3.1 to 12.5 µg/mL (≈ 11 to 44.4 µM) | 6.2 to 12.5 µg/mL (≈ 22 to 44.4 µM) | 6.2 to 12.5 µg/mL (≈ 22 to 44.4 µM) | ≤ 100 µg/mL | 12.5 µg/mL (≈ 44.4 µM) | Minimal Inhibitory Concentration (A. fumigatus NRRL 163; NRRL 163): 5.2 to 25 µg/mL; Minimal Inhibitory Concentration ([16]; 32° C.): 6.12 to 12.5 µg/mL; MIC [16]: 6.2 to 12.5 µg/mL (≈ 22 to 44.4 µM); Minimal Inhibitory Concentration [7]: 6.2 to 12.5 µg/mL; MIC (T. tonsurans ATCC 10217): 6.2 µg/mL (≈ 22 µM); Minimal Inhibitory Concentration (S. aureus NRRL B2747 [10]; 32° C.): 6.2 to 12.5 µg/mL; MIC [11]: 3.1 µg/mL (≈ 11 µM); MIC [13]: 6.2 µg/mL (≈ 22 µM); MIC (S. aureus NRRL B2747 [15]): 25 µg/mL (≈ 88.9 µM)
C=C1C(=O)c2ccccc2OC1c1ccc(C)cc1 (stereo not shown) [Ex. 13, 4'-methyl-3-methylene flavanone] | 12.5 µg/mL (≈ 49.9 µM) | 50 µg/mL (≈ 200 µM) | 25 µg/mL (≈ 99.9 µM) | 50 µg/mL (≈ 200 µM) | 25 µg/mL (≈ 99.9 µM) | 50 µg/mL (≈ 200 µM) | 25 µg/mL (≈ 99.9 µM) | > 100 µg/mL | > 100 µg/mL | > 100 µg/mL | 12.5 µg/mL (≈ 49.9 µM) | 6.2 µg/mL (≈ 24.8 µM) | 50 µg/mL (≈ 200 µM) | 6.2 µg/mL (≈ 24.8 µM) | 6.2 µg/mL (≈ 24.8 µM) | ≤ 3.1 µg/mL | 6.2 µg/mL (≈ 24.8 µM) | 6.2 µg/mL (≈ 24.8 µM) | ≤ 100 µg/mL | ≤ 100 µg/mL | MIC (A. fumigatus NRRL 165): 50 µg/mL (≈ 200 µM); MIC [16]: 6.2 µg/mL (≈ 24.8 µM)
